# Source: patent US8912121B2, “Herbicidal compositions comprising 4-amino-3-chloro-5-fluoro-6-(4-chloro-2-fluoro-3-methoxyphenyl)pyridine-2-carboxylic acid or a derivative thereof and certain PS II inhibitors” (Dow Agrosciences LLC, priority 2012, dated 2014)
# Columns and labels:
# [1] = system: SASKR (Salsola tragus, Russian thistle); experiment: Postemergence herbicidal activity of mixtures in cereal crops, greenhouse; type: in vivo, Salsola tragus L.
# Protocol: (§1) Seeds of the desired test plant species were planted in Sun Gro MetroMix® 306 planting mixture, which typically has a pH of 6.0 to 6.8 and an organic matter content of about 30 percent, in plastic pots with a surface area of 103.2 square centimeters (cm^2). When required to ensure good germination and healthy plants, a fungicide treatment and/or other chemical or physical treatment was applied. The plants were grown for 7-36 days in a greenhouse with an approximate 14 hour photoperiod which was maintained at about 18° C. during the day and about 17° C. during the night. Nutrients and water were added on a regular basis and supplemental lighting was provided with overhead metal halide 1000-Watt lamps as necessary. The plants were employed for testing when they reached the second or third true leaf stage.
# (§2) Treatments consisted of the benzyl ester of 4-amino-3-chloro-5-fluoro-6-(4-chloro-2-fluoro-3-methoxy-phenyl)pyridine-2-carboxylic acid (Compound A), formulated as an SC, a second cereal herbicide alone and then both in combination.
# (§3) Other herbicidal components were applied on an active ingredient basis and included PSII-inhibiting herbicides.
# (§4) Measured aliquots of benzyl ester of 4-amino-3-chloro-5-fluoro-6-(4-chloro-2-fluoro-3-methoxy-phenyl)pyridine-2-carboxylic acid (Compound A) were placed in 25 milliliter (mL) glass vials and diluted in a volume of 1.25% (v/v) Agri-Dex® crop oil concentrate to obtain stock solutions. Compound requirements are based upon a 12 mL application volume at a rate of 187 liters per hectare (L/ha). Spray solutions of the second cereal herbicide and experimental compound mixtures were prepared by adding the stock solutions to the appropriate amount of dilution solution to form 12 mL spray solution with active ingredients in two- and three-way combinations. Formulated compounds were applied to the plant material with an overhead Mandel track sprayer equipped with an 8002E nozzle calibrated to deliver 187 L/ha over an application area of 0.503 square meters (m^2) at a spray height of 18 inches (46 cm) above average plant canopy. Control plants were sprayed in the same manner with the solvent blank.
# (§5) The treated plants and control plants were placed in a greenhouse as described above and watered by sub-irrigation to prevent wash-off of the test compounds. After 20-22 days, the condition of the test plants as compared with that of the control plants was determined visually and scored on a scale of 0 to 100 percent where 0 corresponds to no injury and 100 corresponds to complete kill.
# (§6) Colby's equation was used to determine the herbicidal effects expected from the mixtures (Colby, S. R. 1967. Calculation of the synergistic and antagonistic response of herbicide combinations. Weeds 15:20-22).
# (§7) The following equation was used to calculate the expected activity of mixtures containing two active ingredients, A and B: Expected=A+B−(A×B/100)
# [2] = system: SINAR (Sinapis arvensis, wild mustard); experiment: as above; type: in vivo, Sinapis arvensis L.
# Protocol: as §1, §2, §3, §4, §5, §6, §7
# [3] = system: IPOHE (Ipomoea hederacea, ivyleaf morningglory); experiment: Pre-emergence soil-applied mixtures, greenhouse; type: in vivo, Ipomoea hederacea (L.) Jacq.
# Source text: (§8) Seeds or nutlets of the desired test plant species were planted in a soil matrix prepared by mixing a loam soil (32 percent silt, 23 percent clay, and 45 percent sand, with a pH of about 6.5 and an organic matter content of about 1.9 percent) and calcareous grit in an 80 to 20 ratio. The soil matrix was contained in plastic pots with a volume of 1 quart and a surface area of 83.6 square centimeters (cm^2).
# (§9) Treatments consisted of the benzyl ester of 4-amino-3-chloro-5-fluoro-6-(4-chloro-2-fluoro-3-methoxy-phenyl)pyridine-2-carboxylic acid (compound A) formulated as an SC (suspension concentrate) and various herbicidal components alone and in combination. Forms of compound A were applied on an acid equivalent basis.
# (§10) Other herbicidal components were applied on an acid equivalent or active ingredient basis and included the PSII-inhibiting herbicides, atrazine formulated as Atrazine® 90WDG, metribuzin formulated as Metribuzin 75DF, simazine formulated as Princep Caliber 90, tebuthiuron formulated as Spike 80DF, cyanazine (technical grade material), hexazinone (technical grade material), linuron (technical grade material), terbuthylazine (technical grade material), and diuron formulated as Diuron 4L.
# (§11) Treatment requirements were calculated based upon the rates being tested, the concentration of active ingredient or acid equivalent in the formulation, and a 12 mL application volume at a rate of 187 L/ha.
# For treatments comprised of formulated compounds, measured amounts of compounds were placed individually in 25 mL glass vials and diluted in a volume of 1.25% (v/v) Agri-Dex® crop oil concentrate (COC) to obtain 12× stock solutions. […] Application solutions were prepared by adding an appropriate amount of each stock solution (e.g., 1 mL) and diluted to the appropriate final concentrations with the addition of 10 mL of an aqueous mixture of 1.25% (v/v) COC so that the final spray solutions contained 1.25% (v/v) COC.
# For treatments comprised of technical compounds, weighed amounts can be placed individually in 25 mL glass vials and dissolved in a volume of 97:3 (v/v) acetone/DMSO to obtain 12× stock solutions. […]
# (§12) For treatments comprised of formulated and technical compounds, weighed amounts of the technical materials can be placed individually in 25 mL glass vials and dissolved in a volume of 97:3 (v/v) acetone/DMSO to obtain 12× stock solutions, and measured amounts of the formulated compounds can be placed individually in 25 mL glass vials and diluted in a volume of 1.5% (v/v) COC or water to obtain 12× stock solutions. […]
# [4] = system: ECHCO (Echinochloa colonum, junglerice); experiment: Pre-emergence soil-applied mixtures, greenhouse; type: in vivo, Echinochloa colonum (L.) Link
# Source text: as §8, §9, §10, §11
# For treatments comprised of formulated compounds, measured amounts of compounds were placed individually in 25 mL glass vials and diluted in a volume of 1.25% (v/v) Agri-Dex® crop oil concentrate (COC) to obtain 12× stock solutions. […]
# as §12
# [5] = Compound A Benzyl Ester 16 g ae/ha
# [6] = Compound A Benzyl Ester 32 g ae/ha
smiles,measurement,setting,value
"COc1c(Cl)ccc(-c2nc(C(=O)OCc3ccccc3)c(Cl)c(N)c2F)c1F [Compound A Benzyl Ester, benzyl ester of 4-amino-3-chloro-5-fluoro-6-(4-chloro-2-fluoro-3-methoxy-phenyl)pyridine-2-carboxylic acid]",Visual Weed Control (%)-21 DAA SASKR Obs,[1]; Compound A Benzyl Ester 2.5 g ai/ha,15%
same,Visual Weed Control (%)-21 DAA SASKR Obs,[1]; Compound A Benzyl Ester 5 g ai/ha,50%
same,Visual Weed Control (%)-21 DAA SASKR Obs,[1]; Compound A Benzyl Ester 10 g ai/ha,67%
same,Visual Weed Control (%)-21 DAA SINAR Obs,"[2]; Compound A Benzyl Ester 2.5 g ai/ha, Table 21",70%
same,Visual Weed Control (%)-21 DAA SINAR Obs,"[2]; Compound A Benzyl Ester 2.5 g ai/ha, Table 22",70%
same,Visual Weed Control (%)-21 DAA SINAR Obs,"[2]; Compound A Benzyl Ester 5 g ai/ha, Table 21",73%
same,Visual Weed Control (%)-21 DAA SINAR Obs,"[2]; Compound A Benzyl Ester 5 g ai/ha, Table 22",73%
same,Visual Weed Control (%) - 33 DAA IPOHE Obs,[3]; [5],0%
same,Visual Weed Control (%) - 33 DAA IPOHE Obs,[3]; [6],5%
same,Visual Weed Control (%)-29 DAA ECHCO Obs,[4]; [5],0%
same,Visual Weed Control (%)-29 DAA ECHCO Obs,[4]; [6],5%
